Test results reported in article PMC3755495 (Biochemical pharmacology, 2013).

Target: T1, MCAK (Kinesin-like protein KIF2C/MCAK) (Homo sapiens, UniProt Q99661)
T1 sequence (Q99661 2-725): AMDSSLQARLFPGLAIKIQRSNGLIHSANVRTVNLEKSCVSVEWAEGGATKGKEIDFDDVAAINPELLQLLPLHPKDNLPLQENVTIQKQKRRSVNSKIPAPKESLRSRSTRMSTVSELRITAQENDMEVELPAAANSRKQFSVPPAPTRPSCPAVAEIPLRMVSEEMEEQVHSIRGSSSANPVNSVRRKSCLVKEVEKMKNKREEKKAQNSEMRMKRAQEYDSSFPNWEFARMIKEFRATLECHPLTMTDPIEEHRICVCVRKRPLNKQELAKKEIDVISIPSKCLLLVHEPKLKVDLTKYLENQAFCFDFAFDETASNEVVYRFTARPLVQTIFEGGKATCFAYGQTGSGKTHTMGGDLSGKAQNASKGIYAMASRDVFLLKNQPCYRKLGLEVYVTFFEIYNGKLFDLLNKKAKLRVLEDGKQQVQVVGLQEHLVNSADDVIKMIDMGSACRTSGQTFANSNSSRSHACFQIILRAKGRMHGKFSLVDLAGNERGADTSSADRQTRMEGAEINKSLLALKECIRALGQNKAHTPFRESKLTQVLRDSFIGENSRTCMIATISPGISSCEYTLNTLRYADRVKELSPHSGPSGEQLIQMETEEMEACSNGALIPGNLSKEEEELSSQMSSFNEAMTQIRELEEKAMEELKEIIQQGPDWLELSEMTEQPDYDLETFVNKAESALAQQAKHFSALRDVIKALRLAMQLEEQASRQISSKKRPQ
Experiment: displacement of MCAK from immobilized ligand […], Western blot
Type: biochemical
Settings: MgATP in NP-40 lysis buffer, 15 min

Nc1ncnc2c1ncn2[C@@H]1O[C@H](COP(=O)(O)OP(=O)(O)OP(=O)(O)O)[C@@H](O)[C@H]1O [ATP] was tested. Which “displacement of MCAK from immobilized ligand 3, Western blot” value did it give?
Its value is “MCAK binding to the immobilized drug could be inhibited by increasing concentrations of ATP”.
